In the assay the test system is Zellen eines ösophago-gastralen Karzinoms oder eines Magenkarzinoms. In words: Cell viability dose-response of single FLOT components on in vitro cultured patient tumour cells (Presto Blue). It counts as cell-based. The text has this:
Die Konzentration der mindestens einen Komponente der Testzusammensetzung kann auf Basis von empirisch ermittelten Werten festgelegt werden. Zur empirischen Bestimmung von geeigneten Komponentenkonzentrationen für die Testzusammensetzung werden zunächst Zellen eines ösophago-gastralen Karzinoms, insbesondere eines Magenkarzinoms, von mehreren Patienten entnommen und diese Zellen jeweils separat bei physiologischen Bedingungen in vitro kultiviert. Dabei kann die Patientenkultur auf mehrere Vertiefungen einer Zellkulturplatte aufgeteilt werden. Die kultivierten Patientenzellen werden anschließend jeweils mit einer der Komponenten in jeweils vorgegebenen Konzentrationen in Kontakt gebracht und inkubiert. Das heißt, die die Patientenkulturen werden mit den jeweiligen Komponentenkonzentrationen behandelt. Da sich für Leucovorin selbst keine Wirkung auf die Zellen nachweisen lässt, kann Leucovorin als Komponente zur Bestimmung der Komponentenkonzentration ausgenommen werden. Die Behandlung kann in zwei Vorgehensvarianten unterschieden werden. Gemäß einer ersten Variante erfolgt die Behandlung einer Patientenkultur mit den Komponentenkonzentrationen der betreffenden Komponente beginnend mit der niedrigsten Komponentenkonzentration, wobei die Komponentenkonzentration jeweils nach einer vorgegebenen Inkubationszeit schrittweise oder kontinuierlich erhöht wird. Die Zellviabilität wird dabei nach vorgegebenen Inkubationszeiten bestimmt. Gemäß einer zweiten Variante, werden Patientenzellen enthaltene Vertiefungen jeweils mit einer konkreten Konzentration der jeweiligen Komponente behandelt und inkubiert, wobei die Zellviabilitäten nach einer vorgegebenen Inkubationszeit bestimmt werden. Auf diese Weise können mehrere Komponentenkonzentrationen verschiedener Konzentrationen gleichzeitig getestet werden.
Für jede Komponente 5-Fluorouracil, Oxaliplatin und Docetaxel, kann eine patientenspezifische mittlere inhibitorische Konzentration IC50 (IC50F, IC50O, IC50T,) ermittelt werden. Die IC50-Werte geben an, ab welcher Konzentration der Komponenten eine halbmaximale Wachstumshemmung der Patientenzellen erreicht ist. Anschließend wird aus den Werten der ermittelten patientenspezifischen mittleren inhibitorischen Konzentrationen (IC50F, IC50O, IC50T) für jede Komponente (5-Fluorouracil, Oxaliplatin und Docetaxel, (F, O, T)) ein inhibitorischer Konzentrations-Mittelwert (mIC50F, mIC50O, mIC50T) bestimmt. Der inhibitorische Konzentrations-Mittelwert mIC50 ist der Mittelwert aus der Gesamtheit der IC50-Werte einer der Komponenten (F, O, T). […]

“Also recorded” adds a separate entry of the source. Like-named read-outs stand apart in the source and are kept apart here.

`Nc1nc2c(c(=O)[nH]1)N(C=O)C(CNc1ccc(C(=O)N[C@@H](CCC(=O)O)C(=O)O)cc1)CN2` (stereo partly shown) [Leucovorin]: the “Effekt auf die Zellviabilität der Patientenkulturen” value (single-agent tests) is “keine Wirkung; also recorded: keinen Effekt”.

For the compound `CC(=O)O[C@@]12CO[C@@H]1C[C@H](O)[C@@]1(C)C(=O)[C@H](O)C3=C(C)[C@@H](OC(=O)[C@H](O)[C@@H](NC(=O)OC(C)(C)C)c4ccccc4)C[C@@](O)([C@@H](OC(=O)c4ccccc4)[C@H]21)C3(C)C` [Docetaxel], the IC50 (cell cultures of 13 patients, same procedure as for 5-FU, read-out: Docetaxelspezifische mittlere halbmaximale inhibitorische Konzentration mIC50T) turned out to be 0.0012 µM.

As to `O=C1[O][Pt]2([NH][C@@H]3CCCC[C@H]3[NH]2)[O]C1=O` [Oxaliplatin], the IC50 (cell cultures of 13 patients, same procedure as for 5-FU, read-out: Oxaliplatin-spezifische mittlere halbmaximale inhibitorische Konzentration mIC50O) turned out to be 10.7 µM.

In the case of `O=c1[nH]cc(F)c(=O)[nH]1` [5-FU, 5-Fluorouracil], the IC50 (144 h, read-out: 5-FU-spezifische mittlere halbmaximale inhibitorische Konzentration mIC50F) came out at 10.3 µM.

(Values after patent EP4382907A1, “METHOD FOR PREDICTING A PATIENT-SPECIFIC RESPONSE TO THE FLOT CHEMOTHERAPY SCHEME” (Technische Universität Dresden, priority 2022, dated 2024).)
